According to patent publication US9216991B2 (Ares Trading S.A., priority 2012, dated 2015):

Target: T1, IRAK4 (Homo sapiens, UniProt Q9NWZ3)
T1 construct: His (N); TEV cleavage site (N)
T1 sequence (Q9NWZ3 1-460): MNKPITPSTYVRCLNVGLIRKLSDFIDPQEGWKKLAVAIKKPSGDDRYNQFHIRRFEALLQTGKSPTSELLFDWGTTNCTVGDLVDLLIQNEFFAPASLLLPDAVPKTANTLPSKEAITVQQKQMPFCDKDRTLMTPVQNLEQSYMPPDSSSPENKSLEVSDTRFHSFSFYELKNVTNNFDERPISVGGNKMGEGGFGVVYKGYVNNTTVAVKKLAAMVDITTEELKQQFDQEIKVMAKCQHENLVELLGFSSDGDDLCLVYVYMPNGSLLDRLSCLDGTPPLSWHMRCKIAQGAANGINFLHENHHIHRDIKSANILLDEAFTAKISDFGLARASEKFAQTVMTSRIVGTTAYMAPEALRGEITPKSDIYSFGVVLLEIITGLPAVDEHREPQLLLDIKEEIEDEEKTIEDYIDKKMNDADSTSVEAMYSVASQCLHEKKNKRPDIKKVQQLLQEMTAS
Experiment: IRAK4 Enzymatic Assay
Format: biochemical
Details: His-TEV-IRAK4 20 ng/well, ATP 2 μM, STK1-biotin peptide 300 nM, 3 hours at 30° C., FlashPlate radioactivity
In short: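 Recombinant His-TEV-tagged IRAK4 (20 ng/well) phosphorylates biotinylated STK1 peptide (300 nM) with 2 μM ATP plus [^33P]ATP, 3 h at 30 °C in pH 7.0 HEPES buffer with MgCl2 and MnCl2; compounds tested 20 μM to 1 nM. Reaction stopped with EDTA; incorporated radioactivity counted on streptavidin FlashPlates.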

Structure (SMILES) | IC50 [µM]
CC(=O)N1CC[C@H](n2cc(-c3cnc(-c4cccc(-c5cnn(C)c5)c4)nc3)cn2)C1 [Example 126, 1-[(S)-3-(4-{2-[3-(1-Methyl-1H-pyrazol-4-yl)-phenyl]-pyrimidin-5-yl}-pyrazol-1-yl)-pyrrolidin-1-yl]-ethanone] | 0.1 to 1
Cn1cc(-c2cccc(-c3ncc(-c4cnn(CC(=O)N5C6CCC5CC(O)C6)c4)cn3)c2)cn1 (stereo not drawn) [Example 127, 1-(3-Hydroxy-8-aza-bicyclo[3.2.1]oct-8-yl)-2-(4-{2-[3-(1-methyl-1H-pyrazol-4-yl)-phenyl]-pyrimidin-5-yl}-pyrazol-1-yl)-ethanone] | 0.1 to 1
Cn1cc(-c2cccc(-c3ncc(-c4cnn(CC(=O)N5C6CCC5CC(O)C6)c4)cn3)c2)cn1 (stereo not drawn) [Example 128, 1-(3-Hydroxy-8-aza-bicyclo[3.2.1]oct-8-yl)-2-(4-{2-[3-(1-methyl-1H-pyrazol-4-yl)-phenyl]-pyrimidin-5-yl}-pyrazol-1-yl)-ethanone] | 0.1 to 1
Cn1cc(-c2cccc(-c3ncc(-c4cnn(C5CCOC5=O)c4)cn3)c2)cn1 (stereo not drawn) [Example 129, 3-(4-{2-[3-(1-Methyl-1H-pyrazol-4-yl)-phenyl]-pyrimidin-5-yl}-pyrazol-1-yl)-dihydro-furan-2-one] | 0.1 to 1
CC(=O)N1CC[C@@H](n2cc(-c3cnc(-c4cccc(-c5cnn(C)c5)c4)nc3)cn2)C1 [Example 130, 1-[(R)-3-(4-{2-[3-(1-Methyl-1H-pyrazol-4-yl)-phenyl]-pyrimidin-5-yl}-pyrazol-1-yl)-pyrrolidin-1-yl]-ethanone] | 1 to 5
Cn1cc(-c2cccc(-c3ncc(-c4cnn(CCC5CCOC5)c4)cn3)c2)cn1 (stereo not drawn) [Example 131, 2-[3-(1-Methyl-1H-pyrazol-4-yl)-phenyl]-5-{1-[2-(tetrahydro-furan-3-yl)-ethyl]-1H-pyrazol-4-yl}-pyrimidine] | 0.1 to 1
Cn1cc(-c2cccc(-c3ncc(-c4cnn(CCC5CCOC5=O)c4)cn3)c2)cn1 (stereo not drawn) [Example 132, 3-[2-(4-{2-[3-(1-Methyl-1H-pyrazol-4-yl)-phenyl]-pyrimidin-5-yl}-pyrazol-1-yl)-ethyl]dihydro-furan-2-one] | 0.1 to 1
CC(C)N1C2CCCC1CC(n1cc(-c3cnc(-c4cccc(-c5cnn(C)c5)c4)nc3)cn1)C2 (stereo not drawn) [Example 133, 9-Isopropyl-3-(4-{2-[3-(1-methyl-1H-pyrazol-4-yl)-phenyl]-pyrimidin-5-yl}-pyrazol-1-yl)-9-aza-bicyclo[3.3.1]nonane] | 0.1 to 1
CN(C)C(=O)[C@H]1CC[C@H](n2cc(-c3cnc(-c4cccc(-c5cnn(C)c5)c4)nc3)cn2)CC1 [Example 134, Trans-4-(4-{2-[3-(1-Methyl-1H-pyrazol-4-yl)-phenyl]-pyrimidin-5-yl}-pyrazol-1-yl)-cyclohexanecarboxylic acid dimethylamide] | < 0.1
CN(C)C(=O)[C@H]1CC[C@@H](n2cc(-c3cnc(-c4cccc(-c5cnn(C)c5)c4)nc3)cn2)CC1 [Example 135, Cis-4-(4-{2-[3-(1-Methyl-1H-pyrazol-4-yl)-phenyl]-pyrimidin-5-yl}-pyrazol-1-yl)-cyclohexanecarboxylic acid dimethylamide] | 0.1 to 1
Nc1cc(-c2cccc(-c3ncc(-c4cnn(C5CCOCC5)c4)cn3)c2)ccn1 [Example 136, 4-(3-{5-[1-(Tetrahydro-pyran-4-yl)-1H-pyrazol-4-yl]-pyrimidin-2-yl}-phenyl)-pyridin-2-ylamine] | 0.1 to 1
Cn1cc(-c2cccc(-c3ncc(-c4cn(C5CCOCC5)nc4C(N)=O)cn3)c2)cn1 [Example 137, 4-{2-[3-(1-Methyl-1H-pyrazol-4-yl)-phenyl]-pyrimidin-5-yl}-1-(tetrahydro-pyran-4-yl)-1H-pyrazole-3-carboxylic acid amide] | 1 to 5
Cc1cc(-c2cccc(-c3ncc(-c4cnn(C5CCOCC5)c4)cn3)c2)cnn1 [Example 138, 3-Methyl-5-(3-{5-[1-(tetrahydro-pyran-4-yl)-1H-pyrazol-4-yl]-pyrimidin-2-yl}-phenyl)-pyridazine] | 0.1 to 1
Cc1cc(-c2cccc(-c3ncc(-c4cnn(C5CCOCC5)c4)cn3)c2)ccn1 [Example 139, 2-[3-(2-Methyl-pyridin-4-yl)-phenyl]-5-[1-(tetrahydro-pyran-4-yl)-1H-pyrazol-4-yl]-pyrimidine] | 0.1 to 1
Cn1cc(-c2cccc(-c3ncc(-c4cn(C5CCOCC5)nc4C(=O)O)cn3)c2)cn1 [Example 140, 4-{2-[3-(1-Methyl-1H-pyrazol-4-yl)-phenyl]-pyrimidin-5-yl}-1-(tetrahydro-pyran-4-yl)-1H-pyrazole-3-carboxylic acid] | 1 to 5
Cn1cc(-c2cccc(-c3ncc(-c4cnn(C5COC5)c4)cn3)c2)cn1 [Example 141, 2-[3-(1-Methyl-1H-pyrazol-4-yl)-phenyl]-5-(1-oxetan-3-yl-1H-pyrazol-4-yl)-pyrimidine] | 0.1 to 1
CN1[C@@H]2CCC[C@H]1C[C@H](n1cc(-c3cnc(-c4cccc(-c5cnn(C)c5)c4)nc3)cn1)C2 [Example 142, Exo-9-Methyl-3-(4-{2-[3-(1-methyl-1H-pyrazol-4-yl)-phenyl]-pyrimidin-5-yl}-pyrazol-1-yl)-9-aza-bicyclo[3.3.1]nonane] | 0.1 to 1
CNC(=O)[C@H]1CC[C@H](n2cc(-c3cnc(-c4cccc(-c5cnn(C)c5)c4)nc3)cn2)CC1 [Example 143, Trans-4-(4-{2-[3-(1-Methyl-1H-pyrazol-4-yl)-phenyl]-pyrimidin-5-yl}-pyrazol-1-yl)-cyclohexanecarboxylic acid methylamide] | < 0.1
CNC(=O)c1nn(C)cc1-c1cnc(-c2cccc(-c3cnn(C)c3)c2)nc1 [Example 144, 1-Methyl-4-{2-[3-(1-methyl-1H-pyrazol-4-yl)-phenyl]-pyrimidin-5-yl}-1H-pyrazole-3-carboxylic acid methylamide] | 1 to 5
CN(C(=O)Cn1cc(-c2cnc(-c3cccc(-c4cnn(C)c4)c3)nc2)cn1)C1COC1 [Example 145, N-Methyl-2-(4-{2-[3-(1-methyl-1H-pyrazol-4-yl)-phenyl]-pyrimidin-5-yl}-pyrazol-1-yl)-N-oxetan-3-yl-acetamide] | 0.1 to 1
CC1COCCN1C(=O)Cn1cc(-c2cnc(-c3cccc(-c4cnn(C)c4)c3)nc2)cn1 (stereo not drawn) [Example 147, 1-(3-Methyl-morpholin-4-yl)-2-(4-{2-[3-(1-methyl-1H-pyrazol-4-yl)-phenyl]-pyrimidin-5-yl}-pyrazol-1-yl)-ethanone] | 0.1 to 1
CN(C)C(=O)C(C)(C)n1cc(-c2cnc(-c3cccc(-c4cnn(C)c4)c3)nc2)cn1 [Example 149, N,N-Dimethyl-2-(4-{2-[3-(1-methyl-1H-pyrazol-4-yl)-phenyl]-pyrimidin-5-yl}-pyrazol-1-yl)-isobutyramide] | 0.1 to 1
Cn1cc(-c2cccc(-c3ncc(-c4cnn(C(C)(C)C(=O)N5CCOCC5)c4)cn3)c2)cn1 [Example 150, 2-Methyl-2-(4-{2-[3-(1-methyl-1H-pyrazol-4-yl)-phenyl]-pyrimidin-5-yl}-pyrazol-1-yl)-1-morpholin-4-yl-propan-1-one] | 1 to 5
OCc1cc(-c2cccc(-c3ncc(-c4cnn(C5CCOCC5)c4)cn3)c2)ccn1 [Example 151, [4-(3-{5-[1-(Tetrahydro-pyran-4-yl)-1H-pyrazol-4-yl]-pyrimidin-2-yl}-phenyl)-pyridin-2-yl]-methanol] | 0.1 to 1
COCCN(C)C(=O)[C@H]1CC[C@H](n2cc(-c3cnc(-c4cccc(-c5cnn(C)c5)c4)nc3)cn2)CC1 [Example 152, Trans-4-(4-{2-[3-(1-Methyl-1H-pyrazol-4-yl)-phenyl]-pyrimidin-5-yl}-pyrazol-1-yl)-cyclohexanecarboxylic acid (2-methoxy-ethyl)-methyl-amide] | < 0.1
Cn1cc(-c2cccc(-c3ncc(-c4cn(C5CCOCC5)nc4C(=O)N4CC(O)C4)cn3)c2)cn1 [Example 153, (3-Hydroxy-azetidin-1-yl)-[4-{2-[3-(1-methyl-1H-pyrazol-4-yl)-phenyl]-pyrimidin-5-yl}-1-(tetrahydro-pyran-4-yl)-1H-pyrazol-3-yl]-methanone] | 1 to 5
Cn1cc(-c2cccc(-c3ncc(-c4cn(C5CCOCC5)nc4C(=O)NCCO)cn3)c2)cn1 [Example 154, 4-{2-[3-(1-Methyl-1H-pyrazol-4-yl)-phenyl]-pyrimidin-5-yl}-1-(tetrahydro-pyran-4-yl)-1H-pyrazole-3-carboxylic acid (2-hydroxy-ethyl)-amide] | 1 to 5
Cn1cc(-c2cccc(-c3ncc(-c4cn(C)nc4CO)cn3)c2)cn1 [Example 155, (1-Methyl-4-{2-[3-(1-methyl-1H-pyrazol-4-yl)-phenyl]-pyrimidin-5-yl}-1H-pyrazol-3-yl)-methanol] | 1 to 5
Cn1cc(-c2cccc(-c3ncc(-c4cnn([C@H]5CC[C@@H](N)CC5)c4)cn3)c2)cn1 [Example 156, 4-(4-{2-[3-(1-Methyl-1H-pyrazol-4-yl)-phenyl]-pyrimidin-5-yl}-pyrazol-1-yl)-cyclohexylamine] | 0.1 to 1
CNC(=O)C1CC(n2cc(-c3cnc(-c4cccc(-c5cnn(C)c5)c4)nc3)cn2)C1 (stereo not drawn) [Example 157, 3-(4-{2-[3-(1-Methyl-1H-pyrazol-4-yl)-phenyl]-pyrimidin-5-yl}-pyrazol-1-yl)-cyclobutanecarboxylic acid methylamide] | 0.1 to 1
